Measured values from patent EP0230274A2, “Derivatives of 7-(azabicycloalkyl)-quinoloncarboxylic acid and -naphthyridoncarboxylic acid” (BAYER AG, priority 1986, dated 1987).
Values after ≈ are worked out from the molar mass of the structure shown. Structures can show the parent of a compound that is named as a salt. Where two headings read alike, the source gives them in different places.

Tests used:
Assay in all cases: Agar dilution test (Isosensitest agar), MIC
Type in all cases: cell-based
[1] = system: Pseudomonas aerug. W.; details: strain Pseudomonas aerug. W.; Agardilutionstest/Isosensitestagar; read-out: MHK
[2] = system: E.coli 455/7; details: Escherichia coli; strain E.coli 455/7; Agardilutionstest/Isosensitestagar; read-out: MHK
[3] = system: Staph. aur. FK 422; details: strain Staph. aur. FK 422; Agardilutionstest/Isosensitestagar; read-out: MHK
Excerpt: (§1) In der nachstehenden Tabelle sind einige MHK-Werte im Vergleich zu 1-Cyclopropyl-6-fluor-1,4-dihydro-4-oxo-7-(1-piperazinyl)-3-chinolincarbonsäure (Ciprofloxacin) angegeben: […]

[4] = system: Streptoc. faecal. 27101; details: strain Streptoc. faecal. 27101; Agardilutionstest/Isosensitestagar; read-out: MHK
Excerpt: as §1

[5] = system: Streptoc. faecal. 9790; details: strain Streptoc. faecal. 9790; Agardilutionstest/Isosensitestagar; read-out: MHK
Excerpt: as §1

[6] = system: Staph. aur. 1756; details: strain Staph. aur. 1756; Agardilutionstest/Isosensitestagar; read-out: MHK
Excerpt: as §1

[7] = system: Staph. aur. 133; details: strain Staph. aur. 133; Agardilutionstest/Isosensitestagar; read-out: MHK
Excerpt: as §1

[8] = system: Providenicia 12052; details: read-out: MHK
Excerpt: as §1

[9] = strain Providenicia 12052, Agardilutionstest/Isosensitestagar

| MIC [2] [µg/mL] | MIC [3] [µg/mL] | MIC [4] [µg/mL] | MIC [5] [µg/mL] | MIC [6] [µg/mL] | MIC [7] [µg/mL] | MIC [8, 9] [µg/mL] | Structure (SMILES) | MIC [1] [µg/mL] | MIC [8] [µg/mL] |
| --- | --- | --- | --- | --- | --- | --- | --- | --- | --- |
| 2 | 0.25 | 0.25 | 0.25 | 0.25 | – | – | O=C(O)c1cn(C2CC2)c2cc(N3CCN4CCC3C4)c(F)cc2c1=O (stereo not drawn) [Beispiel 1, 1-Cyclopropyl-7-(1,4-diazabicyclo[3.2.1]oct-4-yl)-6-fluor-1,4-dihydro-4-oxo-3-chinolincarbonsäureHydrochlorid] | 0.5 | – |
| 0.5 | 0.06 | 0.06 | 0.06 | 0.06 | 0.06 | 8 | O=C(O)c1cn(C2CC2)c2c(Cl)c(N3CCN4CCC3C4)c(F)cc2c1=O (stereo not drawn) [Beispiel 3, 8-Chlor-1-cyclopropyl-7-(1,4-diazabicyclo[3.2.1]ocl-4-yl)-6-fluor-1,4-dihydro-4-oxo-3-chinolincarbonäure-Hydrochlorid-Hydrat] | – | – |
| 0.5 (≈ 1.33 µM) | – | – | 0.25 (≈ 0.666 µM) | 0.06 (≈ 0.16 µM) | 0.06 (≈ 0.16 µM) | 8 (≈ 21.3 µM) | O=C(O)c1cn(C2CC2)c2c(F)c(N3CCN4CCC3C4)c(F)cc2c1=O (stereo not drawn) [Beispiel 4, 1-Cyclopropyl-7-(1,4-diazabicyclo[3.2.1]oct-4-yl)-6,8-difluor-1,4-dihydro-4-oxo-3-chinolincarbonsäure] | 0.5 (≈ 1.33 µM) | – |

| Structure (SMILES) | MIC [2] [µg/mL] | MIC [3] [µg/mL] | MIC [4] [µg/mL] | MIC [5] [µg/mL] | MIC [6] [µg/mL] | MIC [7] [µg/mL] | MIC [8, 9] [µg/mL] | MIC [1] [µg/mL] | MIC [8] [µg/mL] |
| --- | --- | --- | --- | --- | --- | --- | --- | --- | --- |
| CN1C2CCC1CN(c1cc3c(cc1F)c(=O)c(C(=O)O)cn3C1CC1)C2 [Beispiel 12, 1-Cyclopropyl-6-fluor-1,4-dihydro-7-(8-methyl-3,8-diazabi-cyclo[3.2.1]oct-3-yl)-4-oxo-3-chinolincarbonsäure] | 4 (≈ 10.8 µM) | – | – | – | – | – | – | 0.5 (≈ 1.35 µM) | 16 (≈ 43.1 µM) |
| O=C(O)c1cn(C2CC2)c2cc(N3CCNCC3)c(F)cc2c1=O [Ciprofloxacin, 1-Cyclopropyl-6-fluor-1,4-dihydro-4-oxo-7-(1-piperazinyl)-3-chinolincarbonsäure, reference compound] | 2 (≈ 6.04 µM) | 0.5 (≈ 1.51 µM) | 0.5 (≈ 1.51 µM) | 0.25 (≈ 0.754 µM) | 0.5 (≈ 1.51 µM) | 0.5 (≈ 1.51 µM) | 32 (≈ 96.6 µM) | 0.5 (≈ 1.51 µM) | – |
